# Like-named read-outs stand apart in the source and are kept apart here. Starred links: 1 amine or outer side, 2 acyl side, 3 side chain; linkers in the order of their positions; H or OH if unused. Positions of bridges follow the written chain, without caps; N, C: chain ends. Non-standard residues stand in square brackets, D forms with d. Residues, ends and D or L forms follow the SMILES beside them. *: point of attachment. Phe(4-(4-pyridyl)) = N[C@@H](Cc1ccc(-c2ccncc2)cc1)C(=O)O; Phe(3-OCH2COOH) = N[C@@H](Cc1cccc(OCC(=O)O)c1)C(=O)O; Piperidine(4-CH2CH2CONH2) = NC(=O)CCC1CCN(*)CC1; Phe(4-COOH) = N[C@@H](Cc1ccc(C(=O)O)cc1)C(=O)O; Trp(7-aza) = N[C@@H](Cc1c[nH]c2ncccc12)C(=O)O; Piperidinyl(4-CH2COOH) = O=C(O)CC1CCN(*)CC1; Gly(decyl) = CCCCCCCCCC[C@H](N)C(=O)O; Gly(N(CH2)3COOH) = O=C(O)CCCNCC(=O)O; NMe3Pal = CN[C@@H](Cc1cccnc1)C(=O)O; X1 = CCCCCCC[C@H](N[*:1])C(=O)[*:2]; Gly(cPent) = N[C@H](C(=O)O)C1CCCC1; NMeF = CN[C@@H](Cc1ccccc1)C(=O)O; 4Pal = N[C@@H](Cc1ccncc1)C(=O)O; NMeE = CN[C@@H](CCC(=O)O)C(=O)O; Carboxymethyl = O=C(O)C*; NMeA = CN[C@@H](C)C(=O)O; Sar = CNCC(=O)O
# How the values were obtained:
# Type in all cases: cell-based
# [1] = target: T1, GDF-11 (Homo sapiens, UniProt O95390); assay: Reporter gene assay for myostatin signaling in HepG2 cell line, Evaluation Procedure (1), GDF-11 inhibition; conditions: read-out: IC50 (Luciferase) GDF-11 HepG2
# T1 construct: purchased R&D systems 1958-GD-G8/CF
# T1 sequence (O95390 299-407): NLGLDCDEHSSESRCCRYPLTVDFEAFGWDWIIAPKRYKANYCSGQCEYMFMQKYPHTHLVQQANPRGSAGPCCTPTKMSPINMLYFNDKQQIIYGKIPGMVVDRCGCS
# Outline: (§1)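 IC50 derived from One-Glo luciferase luminescence after 20–24 h at 37 °C. Peptides titrated 4-fold at 0.006–100 nmol/L against myostatin or 0.12–2000 nmol/L against GDF-11 in HepG2 cells carrying a transfected CAGA12-luciferase reporter, kept in 0.1% BSA EMEM.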
# [2] = target: T2, Myostatin (Homo sapiens, UniProt O14793); assay: Reporter gene assay for myostatin signaling in HepG2 cell line, Evaluation Procedure (1), myostatin inhibition; conditions: read-out: IC50 (Luciferase) Myostatin HepG2
# T2 construct: active myostatin (also called mature myostatin) is a homodimer consisting of two C-terminal growth factor domains; purchased R&D systems 788-G8/CF
# T2 sequence (O14793 267-375): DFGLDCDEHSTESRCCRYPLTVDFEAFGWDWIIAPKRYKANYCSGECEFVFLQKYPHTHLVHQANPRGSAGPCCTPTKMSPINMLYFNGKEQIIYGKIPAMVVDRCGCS
# Outline: as §1
# [3] = system: Myostatin; assay: as above; conditions: GDF-11 IC50 versus Myostatin IC50
# Outline: as §1
smiles,measurement,setting,value
CC[C@H](C)[C@@H]1NC(=O)[C@H](Cc2ccccc2)N(C)C(=O)[C@H](Cc2ccc(O)cc2)NC(=O)[C@H](Cc2c[nH]c3ncccc23)NC(=O)[C@H](C)NC(=O)CN(CCCC(=O)O)C(=O)CSC[C@H](C(=O)O)NC(=O)[C@H](Cc2ccccc2)N(C)C(=O)[C@H](C)N(C)C(=O)[C@H](CC(C)C)NC(=O)[C@H](Cc2ccccc2)N(C)C(=O)[C@H](CCCNC(=N)N)NC(=O)[C@H](Cc2ccc(OCC(=O)O)cc2)NC(=O)[C@H](Cc2ccccc2)NC(=O)CN(C)C1=O [Myostatin_99_v43] ({CH2CO}-[Gly(N(CH2)3COOH)]A[Trp(7-aza)]Y[NMeF]I[Sar]FY(Carboxymethyl)R[NMeF]L[NMeA][NMeF][dC]-OH; thioether N-15),IC50,[1]; Method A: GDF-11 10 ng/mL,1990 nM
same,IC50,[2]; Method A: Myostatin 10 ng/mL,33.2 nM
same,Selectivity,[3]; Method A,60
CC(C)C[C@@H]1NC(=O)[C@H](Cc2ccccc2)N(C)C(=O)[C@H](CCCNC(=N)N)NC(=O)[C@H](Cc2ccc(OCC(=O)O)cc2)NC(=O)[C@H](Cc2cccc(OCC(=O)O)c2)NC(=O)[C@H](C)N(C)C(=O)[C@H](C2CCCC2)NC(=O)[C@H](Cc2ccccc2)N(C)C(=O)[C@H](Cc2ccc(O)cc2)NC(=O)[C@H](Cc2ccc(-c3ccncc3)cc2)NC(=O)[C@H](C)NC(=O)CN(CCCC(=O)O)C(=O)CSC[C@H](C(=O)O)NC(=O)[C@H](Cc2ccccc2)N(C)C(=O)[C@H](C)N(C)C1=O [Myostatin_99_v135] ({CH2CO}-[Gly(N(CH2)3COOH)]A[Phe(4-(4-pyridyl))]Y[NMeF][Gly(cPent)][NMeA][Phe(3-OCH2COOH)]Y(Carboxymethyl)R[NMeF]L[NMeA][NMeF][dC]-OH; thioether N-15),IC50,[1]; Method A: GDF-11 10 ng/mL,3290 nM
same,IC50,[2]; Method A: Myostatin 10 ng/mL,22.6 nM
same,Selectivity,[3]; Method A,145
CCCCCCC[C@@H]1NC(=O)[C@H](Cc2ccccc2)N(C)C(=O)[C@H](CCCNC(=N)N)NC(=O)[C@H](Cc2ccc(C(=O)O)cc2)NC(=O)[C@H](Cc2ccncc2)NC(=O)CN(C)C(=O)[C@H]([C@@H](C)CC)NC(=O)[C@H](Cc2ccccc2)N(C)C(=O)[C@H](Cc2ccc(O)cc2)NC(=O)[C@H](Cc2c[nH]c3ccccc23)NC(=O)[C@H](C)NC(=O)CN(CCCC(=O)O)C(=O)CSC[C@H](C(=O)O)NC(=O)[C@H](Cc2ccccc2)N(C)C(=O)[C@H](C)N(C)C1=O [Myostatin_99_v169] ({CH2CO}-[Gly(N(CH2)3COOH)]AWY[NMeF]I[Sar][4Pal][Phe(4-COOH)]R[NMeF][X1][NMeA][NMeF][dC]-OH; thioether N-15),IC50,[1]; Method A: GDF-11 10 ng/mL,372 nM
same,IC50,[2]; Method A: Myostatin 10 ng/mL,1.2 nM
same,Selectivity,[3]; Method A,310
CCCCCCCCCC[C@@H]1NC(=O)[C@H](Cc2ccccc2)N(C)C(=O)[C@H](CCCNC(=N)N)NC(=O)[C@H](Cc2ccc(C(=O)O)cc2)NC(=O)[C@H](Cc2cccc(OCC(=O)O)c2)NC(=O)[C@H]2CCCN2C(=O)[C@H]([C@@H](C)CC)NC(=O)[C@H](Cc2ccccc2)N(C)C(=O)[C@H](Cc2ccc(O)cc2)NC(=O)[C@H](Cc2c[nH]c3ccccc23)NC(=O)[C@H](C)NC(=O)[C@H](C)NC(=O)CSC[C@H](C(=O)N2CCC(CC(=O)O)CC2)NC(=O)[C@H](Cc2ccccc2)N(C)C(=O)[C@H](CCC(=O)O)N(C)C1=O [Myostatin_99_v335] ({CH2CO}-AAWY[NMeF]I[dP][Phe(3-OCH2COOH)][Phe(4-COOH)]R[NMeF][Gly(decyl)][NMeE][NMeF][dC]-{Piperidinyl(4-CH2COOH)}; thioether N-15),IC50,[1]; Method B: GDF-11 1 ng/mL,46.6 nM
same,IC50,[2]; Method B: Myostatin 1 ng/mL,0.32 nM
same,Selectivity,[3]; Method B,145.0
CC[C@H](C)[C@@H]1NC(=O)[C@H](Cc2ccccc2)N(C)C(=O)[C@H](Cc2ccc(O)cc2)NC(=O)[C@H](Cc2ccc(-c3ccncc3)cc2)NC(=O)[C@H](C)NC(=O)CN(CCCC(=O)O)C(=O)CSC[C@H](C(N)=O)NC(=O)[C@H](Cc2ccccc2)N(C)C(=O)[C@H](C)N(C)C(=O)[C@H](CC(C)C)NC(=O)[C@H](Cc2ccccc2)N(C)C(=O)[C@H](CCCNC(=N)N)NC(=O)[C@H](Cc2ccc(OCC(=O)O)cc2)NC(=O)[C@H](Cc2cccc(OCC(=O)O)c2)NC(=O)[C@H](C)N(C)C1=O [Myostatin_99_v123] ({CH2CO}-[Gly(N(CH2)3COOH)]A[Phe(4-(4-pyridyl))]Y[NMeF]I[NMeA][Phe(3-OCH2COOH)]Y(Carboxymethyl)R[NMeF]L[NMeA][NMeF][dC]-NH2; thioether N-15),IC50,[1]; Method A: GDF-11 10 ng/mL,7390 nM
same,IC50,[2]; Method A: Myostatin 10 ng/mL,38.1 nM
same,Selectivity,[3]; Method A,194
CCCCCCC[C@@H]1NC(=O)[C@H](Cc2ccccc2)N(C)C(=O)[C@H](CCCNC(=N)N)NC(=O)[C@H](Cc2ccc(C(=O)O)cc2)NC(=O)[C@H](Cc2cccc(OCC(=O)O)c2)NC(=O)[C@H](C)N(C)C(=O)[C@H]([C@@H](C)CC)NC(=O)[C@H](Cc2ccccc2)N(C)C(=O)[C@H](Cc2ccc(O)cc2)NC(=O)[C@H](Cc2c[nH]c3ccccc23)NC(=O)[C@H](CO)NC(=O)CN(CCCC(=O)O)C(=O)CSC[C@H](C(=O)O)NC(=O)[C@H](Cc2ccccc2)N(C)C(=O)[C@H](C)N(C)C1=O [Myostatin_99_v163] ({CH2CO}-[Gly(N(CH2)3COOH)]SWY[NMeF]I[NMeA][Phe(3-OCH2COOH)][Phe(4-COOH)]R[NMeF][X1][NMeA][NMeF][dC]-OH; thioether N-15),IC50,[1]; Method A: GDF-11 10 ng/mL,1000 nM
same,IC50,[2]; Method A: Myostatin 10 ng/mL,3.6 nM
same,Selectivity,[3]; Method A,279
CCCCCCC[C@@H]1NC(=O)[C@H](Cc2ccccc2)N(C)C(=O)[C@H](CCCNC(=N)N)NC(=O)[C@H](Cc2ccc(C(=O)O)cc2)NC(=O)[C@H](Cc2ccc(O)cc2)NC(=O)CN(C)C(=O)[C@H]([C@@H](C)CC)NC(=O)[C@H](Cc2ccccc2)N(C)C(=O)[C@H](Cc2ccc(O)cc2)NC(=O)[C@H](Cc2c[nH]c3ccccc23)NC(=O)[C@H](C)NC(=O)CN(CCCC(=O)O)C(=O)CSC[C@H](C(=O)O)NC(=O)[C@H](Cc2ccccc2)N(C)C(=O)[C@H](C)N(C)C1=O [Myostatin_99_v167] ({CH2CO}-[Gly(N(CH2)3COOH)]AWY[NMeF]I[Sar]Y[Phe(4-COOH)]R[NMeF][X1][NMeA][NMeF][dC]-OH; thioether N-15),IC50,[1]; Method A: GDF-11 10 ng/mL,214 nM
same,IC50,[2]; Method A: Myostatin 10 ng/mL,4.5 nM
same,Selectivity,[3]; Method A,48
CCCCCCC[C@@H]1NC(=O)[C@H](Cc2ccccc2)N(C)C(=O)[C@H](CCCNC(=N)N)NC(=O)[C@H](Cc2ccc(C(=O)O)cc2)NC(=O)[C@H](Cc2cccc(OCC(=O)O)c2)NC(=O)[C@H](C)N(C)C(=O)[C@H]([C@@H](C)CC)NC(=O)[C@H](Cc2ccccc2)N(C)C(=O)[C@H](Cc2ccc(O)cc2)NC(=O)[C@H](Cc2c[nH]c3ccccc23)NC(=O)[C@H](C)NC(=O)[C@H](C)NC(=O)CSC[C@H](C(=O)O)NC(=O)[C@H](Cc2ccccc2)N(C)C(=O)[C@H](C)N(C)C1=O [Myostatin_99_v194] ({CH2CO}-AAWY[NMeF]I[NMeA][Phe(3-OCH2COOH)][Phe(4-COOH)]R[NMeF][X1][NMeA][NMeF][dC]-OH; thioether N-15),IC50,[1]; Method A: GDF-11 10 ng/mL,139 nM
same,IC50,[2]; Method A: Myostatin 10 ng/mL,1.2 nM
same,Selectivity,[3]; Method A,116
CCCCCCC[C@@H]1NC(=O)[C@H](Cc2cccnc2)N(C)C(=O)[C@H](CCCNC(=N)N)NC(=O)[C@H](Cc2ccc(C(=O)O)cc2)NC(=O)[C@H](Cc2cccc(OCC(=O)O)c2)NC(=O)CN(C)C(=O)[C@H]([C@@H](C)CC)NC(=O)[C@H](Cc2ccccc2)N(C)C(=O)[C@H](Cc2ccc(O)cc2)NC(=O)[C@H](Cc2c[nH]c3ccccc23)NC(=O)[C@H](C)NC(=O)[C@H](C)NC(=O)CSC[C@H](C(=O)O)NC(=O)[C@H](Cc2ccccc2)N(C)C(=O)[C@H](C)N(C)C1=O [Myostatin_99_v211] ({CH2CO}-AAWY[NMeF]I[Sar][Phe(3-OCH2COOH)][Phe(4-COOH)]R[NMe3Pal][X1][NMeA][NMeF][dC]-OH; thioether N-15),IC50,[1]; Method A: GDF-11 10 ng/mL,232 nM
same,IC50,[2]; Method A: Myostatin 10 ng/mL,1.1 nM
same,Selectivity,[3]; Method A,211
CCCCCCC[C@@H]1NC(=O)[C@H](Cc2ccccc2)N(C)C(=O)[C@H](CCCNC(=N)N)NC(=O)[C@H](Cc2ccc(C(=O)O)cc2)NC(=O)[C@H](Cc2cccc(OCC(=O)O)c2)NC(=O)CN(C)C(=O)[C@H]([C@@H](C)CC)NC(=O)[C@H](Cc2ccccc2)N(C)C(=O)[C@H](Cc2ccc(O)cc2)NC(=O)[C@H](Cc2c[nH]c3ccccc23)NC(=O)[C@H](C)NC(=O)[C@H](C)NC(=O)CSC[C@H](C(=O)N2CCC(CCC(N)=O)CC2)NC(=O)[C@H](Cc2ccccc2)N(C)C(=O)[C@H](CCC(=O)O)N(C)C1=O [Myostatin_99_v316] ({CH2CO}-AAWY[NMeF]I[Sar][Phe(3-OCH2COOH)][Phe(4-COOH)]R[NMeF][X1][NMeE][NMeF][dC]-{Piperidine(4-CH2CH2CONH2)}; thioether N-15),IC50,[1]; Method B: GDF-11 1 ng/mL,89.7 nM
same,IC50,[2]; Method B: Myostatin 1 ng/mL,0.37 nM
same,Selectivity,[3]; Method B,239.8
CCCCCCC[C@@H]1NC(=O)[C@H](Cc2ccccc2)N(C)C(=O)[C@H](CCCNC(=N)N)NC(=O)[C@H](Cc2ccc(C(=O)O)cc2)NC(=O)[C@H](Cc2cccc(OCC(=O)O)c2)NC(=O)CN(C)C(=O)[C@H]([C@@H](C)CC)NC(=O)[C@H](Cc2ccccc2)N(C)C(=O)[C@H](Cc2ccc(O)cc2)NC(=O)[C@H](Cc2c[nH]c3ccccc23)NC(=O)[C@H](C)NC(=O)[C@H](C)NC(=O)CSC[C@H](C(=O)O)NC(=O)[C@H](Cc2ccccc2)N(C)C(=O)[C@H](C)N(C)C1=O [Myostatin_99_v174] ({CH2CO}-AAWY[NMeF]I[Sar][Phe(3-OCH2COOH)][Phe(4-COOH)]R[NMeF][X1][NMeA][NMeF][dC]-OH; thioether N-15),IC50,[1]; Method A: GDF-11 10 ng/mL,226 nM
same,IC50,[2]; Method A: Myostatin 10 ng/mL,1.7 nM
same,Selectivity,[3]; Method A,133

# From patent publication EP4786487A1, “PEPTIDE” (Peptidream Inc, priority 2023, dated 2025)
